The structures appear in SMILES notation.

This experiment deals with PIK3CB;PIK3CG;PIK3CD;PIK3CA (human) (UniProt P48736). The experiment is described as follows: Enzyme Assay.

As a reminder, the IC50 is the point on the concentration scale where inhibition reaches its midpoint. Higher therefore signals weaker potency in that assay. Compound `O=C(c1nn(-c2ccc(CNC3CCCOC3)cc2)c2c1CS(=O)(=O)c1ccccc1-2)N1CCOCC1` (stereo unspecified) had a concentration for half-maximal inhibition (IC50) of 224 nM.
In turn, `O=C(c1nn(-c2ccc3[nH]ncc3c2)c2c1CS(=O)(=O)c1ccccc1-2)N1CCOCC1` came in with a half-inhibitory concentration (IC50) of 1640 nM.
As for `O=C(c1nn(C2CCN(CCN3CC[C@H](F)C3)C2)c2c1CS(=O)(=O)c1ccccc1-2)N1CCOCC1` (stereo partly specified), the half-inhibitory concentration (IC50) came out at 192 nM.
`O=C(c1nn(C2CCCN(CCN3CC[C@@H](F)C3)C2)c2c1CS(=O)(=O)c1ccccc1-2)N1CCOCC1` (stereo partly specified) registered an IC50 of 34 nM.
`COC1CN(Cc2ccc(-n3nc(C(=O)N4CCOCC4)c4c3-c3ccccc3S(=O)(=O)C4)cc2)C1`: the IC50 came out at 165 nM.
Compound `O=C(c1nn([C@H]2CCCN(CCN3CCCCC3)C2)c2c1CS(=O)(=O)c1ccccc1-2)N1CCOCC1` returned a 50% inhibitory concentration (IC50) of 15 nM.
Consider `O=C(c1nn(-c2cccc(N3CCCC3)c2)c2c1CS(=O)(=O)c1ccccc1-2)N1CCOCC1`, for which the half-maximal inhibitory concentration (IC50) is 4950 nM.
For the compound `Cc1ccncc1-n1nc(C(=O)N2CCOCC2)c2c1-c1ccccc1S(=O)(=O)C2`, the half-inhibitory concentration (IC50) is 4040 nM.
The result for `O=C(c1nn(C2CCCN(Cc3ccccc3)C2)c2c1CS(=O)(=O)c1ccccc1-2)N1CCOCC1` (stereo unspecified) reads 540 nM; that for `COC1CCN(C(=O)c2cccc(-n3nc(C(=O)N4CCOCC4)c4c3-c3ccccc3S(=O)(=O)C4)c2)CC1`, 302 nM; that for `CC1COCCN1CCN1CCC[C@H](n2nc(C(=O)N3CCOCC3)c3c2-c2ccccc2S(=O)(=O)C3)C1` (stereo partly specified), 101 nM.
On to `Cc1noc(C)c1-c1cccc(-n2nc(C(=O)N3CCOCC3)c3c2-c2ccccc2S(=O)(=O)C3)c1`, for which the half-maximal inhibitory concentration (IC50) was 300 nM.
In the case of `O=C(c1nn(C2CCOC2)c2c1CS(=O)(=O)c1ccccc1-2)N1CCOCC1` (stereo unspecified) it was 890 nM; in that of `O=C(c1nn([C@H]2CCCN(CCN3CCC(F)CC3)C2)c2c1CS(=O)(=O)c1ccccc1-2)N1CCOCC1`, 25 nM.
In turn, `O=C(c1nn(C2CCCN(CCC3CCOCC3)C2)c2c1CS(=O)(=O)c1c(F)cccc1-2)N1CCOCC1` (stereo unspecified) gave a 50% inhibitory concentration (IC50) of 22 nM.
The compound `O=C(c1nn(C2CCC(O)CC2)c2c1CS(=O)(=O)c1ccccc1-2)N1CCOCC1` (stereo unspecified) had an IC50 of 512 nM.
In turn, `CS(=O)(=O)C1CCN(Cc2ccc(-n3nc(C(=O)N4CCOCC4)c4c3-c3ccccc3S(=O)(=O)C4)cc2)C1` (stereo unspecified) yielded an IC50 of 920 nM.
Compound `CC(C)(C)OC(=O)N1CCC(n2nc(C(=O)N3CCOCC3)c3c2-c2ccccc2S(=O)(=O)C3)CC1` returned a concentration for half-maximal inhibition (IC50) of 808 nM.
`O=C(c1nn(-c2cccc(CN3CCCC(F)(F)C3)c2)c2c1CS(=O)(=O)c1ccccc1-2)N1CCOCC1`: the IC50 came to 1540 nM.
In the case of `Cc1ccc2c(c1)-c1c(c(C(=O)N3CCOCC3)nn1-c1ccccc1)CS2(=O)=O` it was 1500 nM.
As to `O=C(c1nn(C2CCN(CCn3cccn3)C2)c2c1CS(=O)(=O)c1ccccc1-2)N1CCOCC1` (stereo unspecified), the IC50 was 257 nM.
As to `O=C(c1nn([C@H]2CCCN(c3ccncc3)C2)c2c1CS(=O)(=O)c1ccccc1-2)N1CCOCC1`, the IC50 stood at 133 nM.
`COCN1c2c(C(=O)N3CCOCC3)nn(-c3ccccc3)c2-c2ccccc2S1(=O)=O` returned a concentration for half-maximal inhibition (IC50) of 11700 nM.
Compound `O=C(c1nn([C@@H]2CCCNC2)c2c1CS(=O)(=O)c1ccccc1-2)N1CCOCC1` came in with an IC50 of 3000 nM.
The compound `Nc1ncc(-c2cccc(-n3nc(C(=O)N4CCOCC4)c4c3-c3ccccc3S(=O)(=O)C4)c2)cn1` came in with an IC50 of 454 nM.
Turning to `O=C(c1ccc(-n2nc(C(=O)N3CCOCC3)c3c2-c2ccccc2S(=O)(=O)C3)cc1)N1CCOCC1`, the IC50 came out at 274 nM.
Turning to `CN(C)C(=O)c1ccc2c(c1)-c1c(c(C(=O)N3CCOCC3)nn1-c1ccccc1)CS2(=O)=O`, the IC50 turned out to be 3730 nM.
The compound `O=C(c1nn(C2CCCN(CCN3CCOCC3)C2)c2c1CS(=O)(=O)c1ccccc1-2)N1CCOCC1` (stereo unspecified) came in with an IC50 of 122 nM.
In the case of `COCCN1CCC[C@H](n2nc(C(=O)N3CCOCC3)c3c2-c2ccc(OC)cc2S(=O)(=O)C3)C1` it was 93 nM; in that of `COc1cccc2c1S(=O)(=O)Cc1c(C(=O)N3CCOCC3)nn(C)c1-2`, 1730 nM; in that of `O=C(c1cccc(-n2nc(C(=O)N3CCOCC3)c3c2-c2ccccc2S(=O)(=O)C3)c1)N1CCC(O)CC1`, 371 nM.
In turn, `O=C(c1nn([C@H]2CCCN(CC3CCOCC3)C2)c2c1CS(=O)(=O)c1ncccc1-2)N1CCOCC1` showed an IC50 of 13 nM.
For the compound `COCc1cccc(-n2nc(C(=O)N3CCOCC3)c3c2-c2ccccc2S(=O)(=O)C3)c1`, the IC50 came out at 997 nM.
In turn, `O=C(c1nn([C@@H]2CCCN(C3CCCOC3)C2)c2c1CS(=O)(=O)c1ncccc1-2)N1CCOCC1` (stereo partly specified) returned a half-inhibitory concentration (IC50) of 2930 nM.
`O=C(c1nn(CC2CCCO2)c2c1CS(=O)(=O)c1ccccc1-2)N1CCOCC1` (stereo unspecified): the half-inhibitory concentration (IC50) was found to be 1560 nM.
In the case of `COC1CCN(CCN2CCC[C@H](n3nc(C(=O)N4CCOCC4)c4c3-c3ccc(F)cc3S(=O)(=O)C4)C2)CC1` it was 13 nM; in that of `O=C(c1nn(-c2ccccc2)c2c1CS(=O)(=O)c1c(Br)cccc1-2)N1CCOCC1`, 494 nM.
In the case of `O=C(c1nn(C2CN(CCC3CCOCC3)C2)c2c1CS(=O)(=O)c1ccccc1-2)N1CCOCC1` it was 95 nM; in that of `COC1CCN(CCN2CCC[C@H](n3nc(C(=O)N4CCOCC4)c4c3-c3ccccc3S(=O)(=O)C4)C2)CC1`, 21 nM.
`O=C(c1nn(-c2ccccc2)c2c1CS(=O)(=O)c1ccccc1-2)N1CCOC(CO)C1` (stereo unspecified) showed a 50% inhibitory concentration (IC50) of 6530 nM.
The result for `O=C(c1nn(-c2ccc(CN3CCOCC3)cc2)c2c1CS(=O)(=O)c1ccccc1-2)N1CCOCC1` reads 170 nM; that for `CN1CCC(Cn2nc(C(=O)N3CCOCC3)c3c2-c2ccccc2S(=O)(=O)C3)CC1`, 2650 nM; that for `O=C(c1nn(C2CCN(CCN3CCOCC3)CC2)c2c1CS(=O)(=O)c1ccccc1-2)N1CCOCC1`, 369 nM.
`COCCN1CCC[C@H](n2nc(C(=O)N3CCOCC3)c3c2-c2cccc(C)c2S(=O)(=O)C3)C1` displayed an IC50 of 96 nM.
The result for `O=C(c1nn(-c2cccc(Cn3ccnc3)c2)c2c1CS(=O)(=O)c1ccccc1-2)N1CCOCC1` reads 673 nM; that for `O=C(c1nn([C@@H]2CCCN(CCC3CCOCC3)C2)c2c1CS(=O)(=O)c1ncccc1-2)N1CCOCC1`, 99 nM; that for `O=C(c1nn(-c2cccc(CO)c2)c2c1CS(=O)(=O)c1ccccc1-2)N1CCOCC1`, 2250 nM.
In the case of `O=C(c1cccc(-n2nc(C(=O)N3CCOCC3)c3c2-c2ccccc2S(=O)(=O)C3)c1)N1CCCC(CO)C1` (stereo unspecified) it was 502 nM.
`O=C(c1nn([C@H]2CCCN(C3CCOCC3)C2)c2c1CS(=O)(=O)c1c(F)cccc1-2)N1CCOCC1` gave a half-inhibitory concentration (IC50) of 13 nM.
As to `O=C(c1nn([C@@H]2CCN(CCC3CCOCC3)C2)c2c1CS(=O)(=O)c1c(F)cccc1-2)N1CCOCC1`, the IC50 worked out at 1690 nM.
The compound `COc1ccc2c(c1)S(=O)(=O)Cc1c(C(=O)N3CCOCC3)nn(-c3ccccc3)c1-2` had an IC50 of 349 nM.
In turn, `COC1CCN(Cc2cccc(-n3nc(C(=O)N4CCOCC4)c4c3-c3ccccc3S(=O)(=O)C4)c2)CC1` displayed an IC50 of 240 nM.
The result for `O=C(c1nn([C@H]2CCCN(C3CCCOC3)C2)c2c1CS(=O)(=O)c1ncccc1-2)N1CCOCC1` (stereo partly specified) reads 36 nM; that for `O=C(c1nn(-c2ccc(C3(CN4CCOCC4)CC3)cc2)c2c1CS(=O)(=O)c1ccccc1-2)N1CCOCC1`, 995 nM; that for `O=C(c1n[nH]c2c1CS(=O)(=O)c1ccccc1-2)N1CCOCC1`, 2880 nM.
Turning to `O=C(c1nn([C@H]2CCCN(C(=O)C3CCOCC3)C2)c2c1CS(=O)(=O)c1ccccc1-2)N1CCOCC1`, the IC50 was 1500 nM.

These data come from the Kinase Knowledgebase extract (Sharma et al. 2016).
